# Test results as given in the Kinase Knowledgebase extract (Sharma et al. 2016).
# Legend:
# [1] = molecular target: EGFR (human) (UniProt P00533)
# [2] = molecular target: EGFR (human) (UniProt P00533); details: a431
# EGFR (human), sequence (P00533 whole entry, looked up): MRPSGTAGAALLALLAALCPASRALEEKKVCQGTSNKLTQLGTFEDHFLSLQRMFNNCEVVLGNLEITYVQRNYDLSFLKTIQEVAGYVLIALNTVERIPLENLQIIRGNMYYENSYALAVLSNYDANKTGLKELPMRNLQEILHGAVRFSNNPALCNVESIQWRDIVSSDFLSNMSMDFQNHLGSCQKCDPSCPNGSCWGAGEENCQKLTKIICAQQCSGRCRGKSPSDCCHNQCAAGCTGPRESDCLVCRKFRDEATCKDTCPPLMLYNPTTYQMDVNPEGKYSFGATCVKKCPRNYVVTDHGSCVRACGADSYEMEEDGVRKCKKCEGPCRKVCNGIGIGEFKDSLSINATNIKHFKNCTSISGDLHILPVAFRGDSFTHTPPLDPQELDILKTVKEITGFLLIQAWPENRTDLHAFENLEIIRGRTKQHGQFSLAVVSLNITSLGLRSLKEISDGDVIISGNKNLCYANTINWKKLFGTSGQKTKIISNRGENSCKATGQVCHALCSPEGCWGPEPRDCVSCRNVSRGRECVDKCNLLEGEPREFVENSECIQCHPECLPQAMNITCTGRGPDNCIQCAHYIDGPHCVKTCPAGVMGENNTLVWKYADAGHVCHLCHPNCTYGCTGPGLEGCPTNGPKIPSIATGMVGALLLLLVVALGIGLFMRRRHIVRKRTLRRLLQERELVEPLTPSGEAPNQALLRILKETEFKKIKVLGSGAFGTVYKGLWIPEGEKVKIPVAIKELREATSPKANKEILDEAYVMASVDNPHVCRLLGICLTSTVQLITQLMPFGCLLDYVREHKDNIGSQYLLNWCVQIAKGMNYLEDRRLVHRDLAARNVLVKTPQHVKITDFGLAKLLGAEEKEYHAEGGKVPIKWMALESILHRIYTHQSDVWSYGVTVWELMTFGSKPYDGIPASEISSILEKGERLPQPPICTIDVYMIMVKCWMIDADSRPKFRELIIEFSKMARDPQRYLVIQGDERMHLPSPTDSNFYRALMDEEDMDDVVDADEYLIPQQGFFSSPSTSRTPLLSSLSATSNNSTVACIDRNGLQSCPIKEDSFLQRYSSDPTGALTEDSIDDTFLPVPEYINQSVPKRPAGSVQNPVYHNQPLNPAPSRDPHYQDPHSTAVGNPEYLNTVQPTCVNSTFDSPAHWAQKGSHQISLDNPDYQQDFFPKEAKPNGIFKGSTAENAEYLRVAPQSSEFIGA
smiles,measurement,setting,value
CC(=O)NC1CCN(CC(O)Cn2ccc(-c3ccc4ncnc(Nc5ccc(OCc6cccc(F)c6)c(Cl)c5)c4c3)c2)CC1 (stereo unspecified),IC50,[1],1 nM
same,IC50,[2],1280 nM
N[C@H]1CCCN(C(=O)Cn2ccc(-c3ccc4ncnc(Nc5ccc(OCc6cccc(F)c6)c(Cl)c5)c4c3)c2)C1,IC50,[1],38 nM
same,IC50,[2],729 nM
OCCc1cn(-c2ccc3ncnc(Nc4ccc(OCc5cccc(F)c5)c(Cl)c4)c3c2)cc1CN1CCCCC1,IC50,[1],54 nM
same,IC50,[2],220 nM
O=C(Cn1ccc(-c2ccc3ncnc(Nc4ccc(OCc5cccc(F)c5)c(Cl)c4)c3c2)c1)N1CCC(N2CCCC2)CC1,IC50,[1],106 nM
same,IC50,[2],240 nM
O=C(NCCN1CCOCC1)c1cn(-c2ccc3ncnc(Nc4ccc(OCc5ccccn5)c(Cl)c4)c3c2)cc1CCO,IC50,[1],30 nM
same,IC50,[2],25 nM
CN1CCN(C(=O)c2cn(-c3ccc4ncnc(Nc5ccc(OCc6ccccn6)c(Cl)c5)c4c3)cc2CCO)CC1,IC50,[1],60 nM
same,IC50,[2],130 nM
O[C@H](CN1CCOCC1)Cn1ccc(-c2ccc3ncnc(Nc4ccc(OCc5cccc(F)c5)c(Cl)c4)c3c2)c1,IC50,[1],18 nM
same,IC50,[2],511 nM
O=C(c1cn(-c2ccc3ncnc(Nc4ccc(OCc5cccc(F)c5)c(Cl)c4)c3c2)cc1CCO)N1CCCCC1,IC50,[1],3 nM
same,IC50,[2],50 nM
CN1CCN(CC(O)Cn2ccc(-c3ccc4ncnc(Nc5ccc(OCc6cccc(F)c6)c(Cl)c5)c4c3)c2)CC1 (stereo unspecified),IC50,[1],36 nM
same,IC50,[2],84 nM
Clc1cc(Nc2ncnc3ccc(-c4ccc[nH]4)cc23)ccc1OCc1ccccn1,IC50,[1],5 nM
same,IC50,[2],90 nM
CS(=O)(=O)CCNC1CCN(C[C@@H](O)Cn2ccc(-c3ccc4ncnc(Nc5ccc(OCc6cccc(F)c6)c(Cl)c5)c4c3)c2)CC1,IC50,[1],11 nM
same,IC50,[2],3620 nM
O=C(Cn1ccc(-c2ccc3ncnc(Nc4ccc(OCc5cccc(F)c5)c(Cl)c4)c3c2)c1)N1CCC(N2CCCCC2)CC1,IC50,[1],79 nM
same,IC50,[2],295 nM
C[C@@H]1CN(C(=O)Cn2ccc(-c3ccc4ncnc(Nc5ccc(OCc6cccc(F)c6)c(Cl)c5)c4c3)c2)C[C@H](C)N1,IC50,[1],12 nM
same,IC50,[2],771 nM
CN1CCN(C(=O)Cn2ccc(-c3ccc4ncnc(Nc5ccc(OCc6cccc(F)c6)c(Cl)c5)c4c3)c2)CC1,IC50,[1],6 nM
same,IC50,[2],298 nM
O=C(C1CC1)N1CCN(CC(O)Cn2ccc(-c3ccc4ncnc(Nc5ccc(OCc6cccc(F)c6)c(Cl)c5)c4c3)c2)CC1 (stereo unspecified),IC50,[1],197 nM
same,IC50,[2],1090 nM
O[C@H](CN1CCOCC1)Cn1ccc(-c2ccc3ncnc(Nc4ccc5c(cnn5Cc5cccc(F)c5)c4)c3c2)c1,IC50,[1],19 nM
same,IC50,[2],749 nM
O=C(NCCN1CCCC1)c1cn(-c2ccc3ncnc(Nc4ccc(OCc5cccc(F)c5)c(Cl)c4)c3c2)cc1CCO,IC50,[1],9 nM
same,IC50,[2],160 nM
O[C@H](CN1CCC[C@@H]1CN1CCCC1)Cn1ccc(-c2ccc3ncnc(Nc4ccc(OCc5cccc(F)c5)c(Cl)c4)c3c2)c1,IC50,[1],95 nM
same,IC50,[2],746 nM
Fc1cccc(COc2ccc(Nc3ncnc4ccc(-c5ccn(C[C@H]6COCCN6)c5)cc34)cc2Cl)c1,IC50,[1],79 nM
same,IC50,[2],562 nM
Fc1cccc(COc2ccc(Nc3ncnc4ccc(-c5ccn(CCc6ccncc6)c5)cc34)cc2Cl)c1,IC50,[1],166 nM
same,IC50,[2],874 nM
OC1CCN(C[C@H](O)Cn2ccc(-c3ccc4ncnc(Nc5ccc(OCc6cccc(F)c6)c(Cl)c5)c4c3)c2)CC1,IC50,[2],660 nM
O[C@@H](CN1CCOCC1)Cn1ccc(-c2ccc3ncnc(Nc4ccc5c(cnn5Cc5cccc(F)c5)c4)c3c2)c1,IC50,[1],8 nM
same,IC50,[2],733 nM
O=C(Cn1ccc(-c2ccc3ncnc(Nc4ccc(OCc5cccc(F)c5)c(Cl)c4)c3c2)c1)N1CCN(CC2CC2)CC1,IC50,[1],443 nM
same,IC50,[2],1980 nM
Fc1cccc(COc2ccc(Nc3ncnc4ccc(-c5ccn(CCN6CCCCCC6)c5)cc34)cc2Cl)c1,IC50,[1],27 nM
same,IC50,[2],657 nM
CCOC(=O)C1CCCN(CC(O)Cn2ccc(-c3ccc4ncnc(Nc5ccc(OCc6cccc(F)c6)c(Cl)c5)c4c3)c2)C1 (stereo unspecified),IC50,[2],1700 nM
Fc1cccc(COc2ccc(Nc3ncnc4ccc(-c5ccn(CCCN6CCCCC6)c5)cc34)cc2Cl)c1,IC50,[1],9 nM
same,IC50,[2],1980 nM
OCCn1ccc(-c2ccc3ncnc(Nc4ccc(OCc5cccc(F)c5)c(Cl)c4)c3c2)c1,IC50,[1],52 nM
same,IC50,[2],40 nM
Fc1cccc(COc2ccc(Nc3ncnc4ccc(-n5cccc5)cc34)cc2Cl)c1,IC50,[1],3 nM
same,IC50,[2],360 nM
OC(CN1CCC(N2CCCCC2)CC1)Cn1ccc(-c2ccc3ncnc(Nc4ccc5c(cnn5Cc5cccc(F)c5)c4)c3c2)c1 (stereo unspecified),IC50,[2],521 nM
O=C(NCCCN1CCOCC1)c1cn(-c2ccc3ncnc(Nc4ccc(F)c(Cl)c4)c3c2)cc1CCO,IC50,[2],560 nM
OC(CN1CCN(Cc2cccnc2)CC1)Cn1ccc(-c2ccc3ncnc(Nc4ccc5c(cnn5Cc5cccc(F)c5)c4)c3c2)c1 (stereo unspecified),IC50,[1],282 nM
same,IC50,[2],1290 nM
OC(CN1CC[C@@H](O)C1)Cn1ccc(-c2ccc3ncnc(Nc4ccc(OCc5cccc(F)c5)c(Cl)c4)c3c2)c1 (stereo partly specified),IC50,[2],360 nM
CCOC(=O)N1CCN(CC(O)Cn2ccc(-c3ccc4ncnc(Nc5ccc6c(cnn6Cc6cccc(F)c6)c5)c4c3)c2)CC1 (stereo unspecified),IC50,[2],270 nM
Fc1cccc(Cn2ncc3cc(Nc4ncnc5ccc(-c6ccn(CCCN7CCOCC7)c6)cc45)ccc32)c1,IC50,[2],426 nM
COCCNCC(O)Cn1ccc(-c2ccc3ncnc(Nc4ccc5c(cnn5Cc5cccc(F)c5)c4)c3c2)c1 (stereo unspecified),IC50,[2],582 nM
OC(CNCCN1CCOCC1)Cn1ccc(-c2ccc3ncnc(Nc4ccc5c(cnn5Cc5cccc(F)c5)c4)c3c2)c1 (stereo unspecified),IC50,[2],714 nM
CC(Nc1ncnc2ccc(-n3cc(CCO)c(CN4CCCC4)c3)cc12)c1ccccc1 (stereo unspecified),IC50,[2],130 nM
OC1CCN(C[C@@H](O)Cn2ccc(-c3ccc4ncnc(Nc5ccc(OCc6cccc(F)c6)c(Cl)c5)c4c3)c2)CC1,IC50,[2],1360 nM
CN1CCN(Cc2cn(-c3ccc4ncnc(Nc5ccc(F)c(Cl)c5)c4c3)cc2CCO)CC1,IC50,[2],210 nM
O=C(Cn1ccc(-c2ccc3ncnc(Nc4ccc(OCc5cccc(F)c5)c(Cl)c4)c3c2)c1)N1CCSC1,IC50,[2],500 nM
CCOC(=O)C1CCN(CC(O)Cn2ccc(-c3ccc4ncnc(Nc5ccc(OCc6cccc(F)c6)c(Cl)c5)c4c3)c2)CC1 (stereo unspecified),IC50,[2],2000 nM
O=S1(=O)CCC(CNCc2ccn(-c3ccc4ncnc(Nc5ccc(OCc6cccc(F)c6)c(Cl)c5)c4c3)c2)CC1,IC50,[2],490 nM
Fc1cccc(Cn2ncc3cc(Nc4ncnc5ccc(-c6ccn(CC7CNCCO7)c6)cc45)ccc32)c1 (stereo unspecified),IC50,[2],710 nM
Fc1cccc(COc2ccc(Nc3ncnc4ccc(-c5ccn(C[C@H]6CCO6)c5)cc34)cc2Cl)c1,IC50,[2],384 nM
O=S1(=O)CCN(CC(O)Cn2ccc(-c3ccc4ncnc(Nc5ccc(OCc6cccc(F)c6)c(Cl)c5)c4c3)c2)CC1 (stereo unspecified),IC50,[2],1460 nM
CS(=O)(=O)N1CCN(CC(O)Cn2ccc(-c3ccc4ncnc(Nc5ccc(OCc6cccc(F)c6)c(Cl)c5)c4c3)c2)CC1 (stereo unspecified),IC50,[2],1180 nM
OC[C@@H]1CCCN1C[C@@H](O)Cn1ccc(-c2ccc3ncnc(Nc4ccc(OCc5cccc(F)c5)c(Cl)c4)c3c2)c1,IC50,[2],252 nM
O[C@@H](CN1CCC(N2CCCCC2)CC1)Cn1ccc(-c2ccc3ncnc(Nc4ccc(OCc5cccc(F)c5)c(Cl)c4)c3c2)c1,IC50,[2],415 nM
OCCC1CCN(CC(O)Cn2ccc(-c3ccc4ncnc(Nc5ccc6c(cnn6Cc6cccc(F)c6)c5)c4c3)c2)CC1 (stereo unspecified),IC50,[2],273 nM
CC(Nc1ncnc2ccc(-n3cc(CCO)c(CN4CCCCC4)c3)cc12)c1ccccc1 (stereo unspecified),IC50,[2],560 nM
OCCc1cn(-c2ccc3ncnc(Nc4ccc(F)c(Cl)c4)c3c2)cc1CN1CCCCC1,IC50,[2],220 nM
CCOC(=O)C1CCN(C(=O)Cn2ccc(-c3ccc4ncnc(Nc5ccc(OCc6cccc(F)c6)c(Cl)c5)c4c3)c2)CC1,IC50,[2],3320 nM
OCCN1CCN(CC(O)Cn2ccc(-c3ccc4ncnc(Nc5ccc6c(cnn6Cc6cccc(F)c6)c5)c4c3)c2)CC1 (stereo unspecified),IC50,[2],459 nM
COC[C@H](O)Cn1ccc(-c2ccc3ncnc(Nc4ccc(OCc5cccc(F)c5)c(Cl)c4)c3c2)c1,IC50,[2],462 nM
Fc1cccc(COc2ccc(Nc3ncnc4ccc(-c5ccn(CCc6ccccn6)c5)cc34)cc2Cl)c1,IC50,[2],1190 nM
O=C(Cn1ccc(-c2ccc3ncnc(Nc4ccc(OCc5cccc(F)c5)c(Cl)c4)c3c2)c1)N1CCS(=O)(=O)CC1,IC50,[2],1490 nM
Fc1cccc(COc2ccc(Nc3ncnc4ccc(-c5ccn(Cc6ccccn6)c5)cc34)cc2Cl)c1,IC50,[2],889 nM
Cc1ccc(Oc2ccc(Nc3ncnc4ccc(-n5cc(CCO)c(C(=O)NCCN6CCCC6)c5)cc34)cc2C)cn1,IC50,[2],140 nM
NC(=O)C1CCN(CC(O)Cn2ccc(-c3ccc4ncnc(Nc5ccc(OCc6cccc(F)c6)c(Cl)c5)c4c3)c2)CC1 (stereo unspecified),IC50,[2],139 nM
OCc1cc(-c2ccc3ncnc(Nc4ccc(OCc5cccc(F)c5)c(Cl)c4)c3c2)c[nH]1,IC50,[2],4560 nM
OC(CN1CCSC1)Cn1ccc(-c2ccc3ncnc(Nc4ccc(OCc5cccc(F)c5)c(Cl)c4)c3c2)c1 (stereo unspecified),IC50,[2],553 nM
CC(=O)N[C@@H]1CCN(CC(O)Cn2ccc(-c3ccc4ncnc(Nc5ccc6c(cnn6Cc6cccc(F)c6)c5)c4c3)c2)C1 (stereo partly specified),IC50,[2],350 nM
O=C(Cn1ccc(-c2ccc3ncnc(Nc4ccc(OCc5cccc(F)c5)c(Cl)c4)c3c2)c1)N1CCCC1,IC50,[2],481 nM
OC(CN1CC[C@@H](F)C1)Cn1ccc(-c2ccc3ncnc(Nc4ccc(OCc5cccc(F)c5)c(Cl)c4)c3c2)c1 (stereo partly specified),IC50,[2],682 nM
CC(Nc1ncnc2ccc(-n3cc(CCO)c(C(=O)N4CCOCC4)c3)cc12)c1ccccc1 (stereo unspecified),IC50,[2],140 nM
CN(C)Cc1cn(-c2ccc3ncnc(Nc4ccc(F)c(Cl)c4)c3c2)cc1CCO,IC50,[2],150 nM
CC(=O)N[C@@H]1CCN(CC(O)Cn2ccc(-c3ccc4ncnc(Nc5ccc(OCc6cccc(F)c6)c(Cl)c5)c4c3)c2)C1 (stereo partly specified),IC50,[2],3770 nM
O[C@@H](CNC1CC1)Cn1ccc(-c2ccc3ncnc(Nc4ccc(OCc5cccc(F)c5)c(Cl)c4)c3c2)c1,IC50,[2],708 nM
O=C1CN(CC(O)Cn2ccc(-c3ccc4ncnc(Nc5ccc(OCc6cccc(F)c6)c(Cl)c5)c4c3)c2)CCN1 (stereo unspecified),IC50,[2],1220 nM
Fc1cccc(Cn2ncc3cc(Nc4ncnc5ccc(-c6ccn(CCOC7CCCCO7)c6)cc45)ccc32)c1 (stereo unspecified),IC50,[2],352 nM
CS(=O)(=O)CCn1ccc(-c2ccc3ncnc(Nc4ccc(OCc5cccc(F)c5)c(Cl)c4)c3c2)c1,IC50,[2],647 nM
Fc1cccc(COc2ccc(Nc3ncnc4ccc(-c5ccn(CCN6CCCCC6)c5)cc34)cc2Cl)c1,IC50,[2],2860 nM
OCCc1cn(-c2ccc3ncnc(Nc4ccc(F)c(Cl)c4)c3c2)cc1CN1CCCC1,IC50,[2],60 nM
Fc1cccc(COc2ccc(Nc3ncnc4ccc(-c5ccn(CCN6CCC(N7CCCCC7)CC6)c5)cc34)cc2Cl)c1,IC50,[2],443 nM
